Tests used:
FTO = FTO (Homo sapiens (Human), UniProt Q9C0B1); experiment: FTO enzyme inhibition (m6A dsDNA substrate, DpnII digestion, gel readout); format: biochemical; conditions: for Inhibition rate: in vitro inhibition rate on FTO, compound at 50 μM; for inhibition at 50 µM: read-out: Inhibition rate
Description: High purity FTO protein was obtained by nickel column affinity chromatography purification.
After incubation at room temperature for 2 hrs, the reaction system was then slowly heated to 65° C. to inactivate, and 1 μM 39 nt of antisense strand DNA was added to anneal, thereby forming double strands. […] After Gel-Red dyeing, photos were taken with gel imaging system. The obtained band was subjected to gray scale reading to obtain inhibition rate.

[1] = test system: human small cell lung cancer cell lines (SCLC-21H); experiment: MTS cytotoxicity on SCLC-21H cells; format: cell-based; conditions: for Inhibition rate (human small cell lung cancer SCLC-21H) / inhibition at 50 µM: 50 μM, 72 h; for inhibition at 50 µM: Homo sapiens, SCLC-21H, read-out: Inhibition rate (human small cell lung cancer SCLC-21H)
Description: (§1) The following was a study of the cytotoxicity study of compound of 2-(substituted phenylhetero)aromatic formic acid of formula (I) and its derivatives as FTO inhibitors on solid tumors including human small cell lung cancer cell lines (SCLC-21H), human bone marrow rhabdomyosarcoma cell line (RH30) and pancreatic cancer cell Line (KP3):
(§2) SCLC-21H, RH30 and KP3 solid tumor cell lines were cultivated separately, and seeded at 5000 cells per well in 96 well plates. The cells were cultured until the cells were adherent, and different compounds were added and the cultivation was continued for 72 hours. 10 uL of MTS solution was directly added and the mixture was incubated for 4 h, and the absorbance was measured at 490 nm. The inhibition rate was calculated by using the DMSO group as a control.

[2] = test system: human bone marrow rhabdomyosarcoma cell line (RH30); experiment: MTS cytotoxicity on RH30 cells; format: cell-based; conditions: for Inhibition rate (human bone marrow rhabdomyosarcoma cell RH30) / inhibition at 50 µM: 50 μM, 72 h; for inhibition at 50 µM: Homo sapiens, Rh30, read-out: Inhibition rate (human bone marrow rhabdomyosarcoma cell RH30)
Description: as §1, §2

[3] = test system: pancreatic cancer cell Line (KP3); experiment: MTS cytotoxicity on KP3 cells; format: cell-based
Description: as §1, §2

FTO, sequence (Q9C0B1 whole entry): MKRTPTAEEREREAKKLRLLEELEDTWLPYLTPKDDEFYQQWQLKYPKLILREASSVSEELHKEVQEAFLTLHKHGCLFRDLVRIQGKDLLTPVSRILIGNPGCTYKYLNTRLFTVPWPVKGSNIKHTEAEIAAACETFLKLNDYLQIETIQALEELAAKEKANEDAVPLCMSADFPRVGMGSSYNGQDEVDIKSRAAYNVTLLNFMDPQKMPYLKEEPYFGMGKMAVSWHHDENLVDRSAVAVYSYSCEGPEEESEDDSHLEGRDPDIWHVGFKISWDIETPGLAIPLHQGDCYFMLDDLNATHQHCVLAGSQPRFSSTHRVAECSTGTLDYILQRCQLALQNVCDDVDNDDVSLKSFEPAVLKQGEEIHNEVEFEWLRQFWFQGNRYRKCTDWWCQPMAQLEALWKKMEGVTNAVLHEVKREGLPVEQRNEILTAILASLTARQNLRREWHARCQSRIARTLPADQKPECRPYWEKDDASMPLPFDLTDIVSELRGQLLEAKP

O=C(O)c1ccccc1Nc1ccc(-c2ccncc2)cc1O [Compound 52]
Inhibition rate (FTO): 90%

Cc1noc(C)c1-c1cc(Cl)c(Nc2ccccc2-c2noc(=O)[nH]2)c(Cl)c1 [Compound 27]
Inhibition rate (human small cell lung cancer SCLC-21H) [1]: 14%
IC50 (FTO): < 1 µM
Inhibition rate (human bone marrow rhabdomyosarcoma cell RH30) [2]: 50%

Cc1noc(C)c1-c1cc(Cl)c(Nc2ncccc2C(=O)NO)c(Cl)c1 [Compound 63]
Inhibition rate (human small cell lung cancer SCLC-21H) [1]: 70%
Inhibition rate (FTO): 35%
Inhibition rate (human bone marrow rhabdomyosarcoma cell RH30) [2]: 68%

O=C(O)c1ccccc1Nc1c(Cl)cc(-c2ccncc2)cc1Cl [Compound 5]
inhibition at 50 µM [1]: 55%
IC50 (FTO): < 5 µM
inhibition at 50 µM [2]: 29%

O=C(O)c1ccccc1Nc1c(Cl)cc(N2CCOCC2)cc1Cl [Compound 55]
IC50 (FTO): < 5 µM
Inhibition rate (FTO): 100%

Cc1noc(C)c1-c1cc(Cl)c(Nc2nccnc2C(=O)O)c(Cl)c1 [Compound 65]
Inhibition rate (human small cell lung cancer SCLC-21H) [1]: 52%
Inhibition rate (FTO): 88%
Inhibition rate (human bone marrow rhabdomyosarcoma cell RH30) [2]: 42%

COc1cc(-c2cn[nH]c2)cc(OC)c1Nc1ccccc1C(=O)O [Compound 41]
Inhibition rate (human small cell lung cancer SCLC-21H) [1]: 35%
Inhibition rate (human bone marrow rhabdomyosarcoma cell RH30) [2]: 28%

Cc1n[nH]cc1-c1cc(Cl)c(Nc2nccnc2C(=O)O)c(Cl)c1 [Compound 67]
Inhibition rate (human small cell lung cancer SCLC-21H) [1]: 33%
Inhibition rate (human bone marrow rhabdomyosarcoma cell RH30) [2]: 41%

O=C(O)c1cccnc1Nc1c(Cl)cc(-c2ccoc2)cc1Cl [Compound 59]
Inhibition rate (human small cell lung cancer SCLC-21H) [1]: 28%
Inhibition rate (FTO): 100%
Inhibition rate (human bone marrow rhabdomyosarcoma cell RH30) [2]: 57%

Cc1noc(C)c1-c1cc(Cl)c(Nc2ccccc2C(=O)O)c(Cl)c1 [Compound 28]
Inhibition rate (human small cell lung cancer SCLC-21H) [1]: 32%
Inhibition rate (human bone marrow rhabdomyosarcoma cell RH30) [2]: 21%

O=C(O)c1cccnc1Nc1c(Cl)cc(-c2ccccc2)cc1Cl [Compound 60]
Inhibition rate (human small cell lung cancer SCLC-21H) [1]: 71%
Inhibition rate (human bone marrow rhabdomyosarcoma cell RH30) [2]: 72%

Cc1cc(-c2c(C)noc2C)c(C)cc1Nc1ccccc1C(=O)O [Compound 48]
Inhibition rate (human small cell lung cancer SCLC-21H) [1]: 63%
Inhibition rate (human bone marrow rhabdomyosarcoma cell RH30) [2]: 51%

Cc1cc(-c2ccncc2)cc(C)c1Nc1ccccc1C(=O)O [Compound 46]
Inhibition rate (human small cell lung cancer SCLC-21H) [1]: 66%
Inhibition rate (FTO): 100%
Inhibition rate (human bone marrow rhabdomyosarcoma cell RH30) [2]: 41%

CCN(CC)CCOC(=O)c1ccccc1Nc1c(Cl)cc(-c2c(C)noc2C)cc1Cl [Compound 86]
inhibition at 50 µM (FTO): 31%

O=C(NO)c1cccnc1Nc1c(Cl)cc(-c2ccncc2)cc1Cl [Compound 62]
Inhibition rate (human small cell lung cancer SCLC-21H) [1]: 84%
Inhibition rate (FTO): 28%
Inhibition rate (human bone marrow rhabdomyosarcoma cell RH30) [2]: 87%

CCN(CC)CCNC(=O)c1ccccc1Nc1c(Cl)cc(-c2c(C)noc2C)cc1Cl [Compound 79]
Inhibition rate (human small cell lung cancer SCLC-21H) [1]: 80%
IC50 ([1]; read-out: Cytotoxicity on cell line SCLC (IC50)): < 1 µM
IC50 [3]: 2.6 µM
IC50 [2]: 2.6 µM
Inhibition rate (human bone marrow rhabdomyosarcoma cell RH30) [2]: 79%

O=C(O)c1nccnc1Nc1c(Cl)cc(-c2ccoc2)cc1Cl [Compound 68]
Inhibition rate (human small cell lung cancer SCLC-21H) [1]: 68%
Inhibition rate (human bone marrow rhabdomyosarcoma cell RH30) [2]: 56%

Cc1noc(C)c1-c1cc(Cl)c(Nc2ccc(F)cc2C(=O)O)c(Cl)c1 [Compound 69]
Inhibition rate (human small cell lung cancer SCLC-21H) [1]: 50%
Inhibition rate (human bone marrow rhabdomyosarcoma cell RH30) [2]: 29%

O=C(O)c1cc(F)ccc1Nc1c(Cl)cc(-c2cn[nH]c2)cc1Cl [Compound 73]
Inhibition rate (FTO): 84%

O=C(O)c1nccnc1Nc1c(Cl)cc(-c2ccncc2)cc1Cl [Compound 66]
Inhibition rate (human small cell lung cancer SCLC-21H) [1]: 48%
Inhibition rate (human bone marrow rhabdomyosarcoma cell RH30) [2]: 53%

COc1cc(OC)cc(-c2cc(Cl)c(Nc3ncccc3C(=O)O)c(Cl)c2)c1 [Compound 61]
Inhibition rate (human small cell lung cancer SCLC-21H) [1]: 44%
Inhibition rate (human bone marrow rhabdomyosarcoma cell RH30) [2]: 52%

Cc1noc(C)c1-c1cc(Cl)c(Nc2ccccc2C(=O)O)c(Cl)c1 [Compound 29]
Inhibition rate (human small cell lung cancer SCLC-21H) [1]: 46%
Inhibition rate (human bone marrow rhabdomyosarcoma cell RH30) [2]: 47%

O=C(O)c1ccccc1Nc1c(Cl)cc(C2CCNCC2)cc1Cl [Compound 56]
Inhibition rate (FTO): 45%

COc1cc(-c2c(C)noc2C)cc(OC)c1Nc1ccccc1C(=O)O [Compound 43]
Inhibition rate (human small cell lung cancer SCLC-21H) [1]: 44%
Inhibition rate (human bone marrow rhabdomyosarcoma cell RH30) [2]: 25%

Cc1noc(C)c1-c1cc(Cl)c(Nc2ccccc2C(=O)O)c(Cl)c1 [Compound 30]
Inhibition rate (human small cell lung cancer SCLC-21H) [1]: 33%
Inhibition rate (human bone marrow rhabdomyosarcoma cell RH30) [2]: 32%

Cc1noc(C)c1-c1cc(Cl)c(Nc2ccc(N)cc2C(=O)O)c(Cl)c1 [Compound 75]
Inhibition rate (human small cell lung cancer SCLC-21H) [1]: 60%
Inhibition rate (FTO): 58%
Inhibition rate (human bone marrow rhabdomyosarcoma cell RH30) [2]: 51%

O=C(O)c1ccccc1Nc1c(Cl)cc(-c2cc(O)cc(O)c2)cc1Cl [Compound 1]
IC50 (FTO): 0.7 µM
inhibition at 50 µM (FTO): 85%

O=C(O)c1ccccc1Nc1c(F)cc(-c2cn[nH]c2)cc1F [Compound 36]
Inhibition rate (FTO): 28%

C#CCOC(=O)c1ccccc1Nc1c(Cl)cc(-c2c(C)noc2C)cc1Cl [Compound 84]
inhibition at 50 µM (FTO): 34%

O=C(O)c1ccccc1Nc1c(F)cc(-c2ccncc2)cc1F [Compound 37]
Inhibition rate (human small cell lung cancer SCLC-21H) [1]: 60%
Inhibition rate (FTO): 31%
Inhibition rate (human bone marrow rhabdomyosarcoma cell RH30) [2]: 21%

O=C(O)c1cc(F)ccc1Nc1c(Cl)cc(-c2ccc(F)cc2)cc1Cl [Compound 72]
Inhibition rate (human small cell lung cancer SCLC-21H) [1]: 64%
Inhibition rate (human bone marrow rhabdomyosarcoma cell RH30) [2]: 37%

O=C(O)c1ccccc1Nc1c(Cl)cc(-c2ccn[nH]2)cc1Cl [Compound 2]
IC50 (FTO): < 5 µM
inhibition at 50 µM (FTO): 80%

CCN(CC)CCNC(=O)c1ccccc1Nc1c(Cl)cc(-c2cc(F)cc(F)c2)cc1Cl [Compound 83]
IC50 [3]: 4.7 µM
IC50 [2]: 4.7 µM

Cc1noc(C)c1-c1cc(Cl)c(Nc2ccccc2C(=O)OCOC(=O)C(C)(C)C)c(Cl)c1 [Compound 87]
inhibition at 50 µM [1]: 26%
inhibition at 50 µM (FTO): 31%
inhibition at 50 µM [2]: 28%

O=C(O)c1ccc(-c2cc(Cl)c(Nc3ccccc3C(=O)O)c(Cl)c2)s1 [Compound 10]
IC50 (FTO): < 1 µM

Cc1noc(C)c1-c1cc(Cl)c(Nc2ccccc2-c2nn[nH]n2)c(Cl)c1 [Compound 26]
Inhibition rate (human small cell lung cancer SCLC-21H) [1]: 17%
Inhibition rate (human bone marrow rhabdomyosarcoma cell RH30) [2]: 36%

Cc1n[nH]c(C)c1-c1cc(Cl)c(Nc2ccccc2C(=O)O)c(Cl)c1 [Compound 17]
inhibition at 50 µM [1]: 25%
inhibition at 50 µM [2]: 39%

O=C(O)c1cc(F)ccc1Nc1c(Cl)cc(-c2ccncc2)cc1Cl [Compound 70]
Inhibition rate (human small cell lung cancer SCLC-21H) [1]: 46%
Inhibition rate (FTO): 81%
Inhibition rate (human bone marrow rhabdomyosarcoma cell RH30) [2]: 42%

Cc1noc(C)c1-c1cc(O)c(Nc2ccccc2C(=O)O)c(O)c1 [Compound 40]
Inhibition rate (FTO): 100%

CCCOCCOC(=O)c1ccccc1Nc1c(Cl)cc(-c2c(C)noc2C)cc1Cl [Compound 85]
inhibition at 50 µM (FTO): 30%

Cc1noc(C)c1-c1cc(Cl)c(Nc2ccccc2C(=O)OCc2oc(=O)oc2C)c(Cl)c1 [Compound 88]
inhibition at 50 µM (FTO): 34%

Cc1cc(-c2c(C)noc2C)cc(C)c1Nc1ccccc1C(=O)O [Compound 44]
Inhibition rate (human small cell lung cancer SCLC-21H) [1]: 47%
Inhibition rate (FTO): 100%
Inhibition rate (human bone marrow rhabdomyosarcoma cell RH30) [2]: 24%

Cc1n[nH]cc1-c1cc(Cl)c(Nc2ncccc2C(=O)O)c(Cl)c1 [Compound 57]
Inhibition rate (human small cell lung cancer SCLC-21H) [1]: 47%
Inhibition rate (FTO): 100%
Inhibition rate (human bone marrow rhabdomyosarcoma cell RH30) [2]: 40%

Cc1noc(C)c1-c1cc(Cl)c(Nc2ccccc2C(=O)O)c(Cl)c1 [Compound 15, 2-((2,6-dichloro-4-(3,5-dimethylisoxazole)phenyl)amino)benzoic acid]
inhibition at 50 µM [1]: 43%
inhibition at 50 µM [2]: 49%

O=C(NO)c1nccnc1Nc1c(Cl)cc(-c2cn[nH]c2)cc1Cl [Compound 64]
Inhibition rate (human small cell lung cancer SCLC-21H) [1]: 24%
Inhibition rate (FTO): 68%
Inhibition rate (human bone marrow rhabdomyosarcoma cell RH30) [2]: 30%

O=C(O)c1ccccc1Nc1cc(F)c(-c2ccncc2)c(F)c1 [Compound 49]
Inhibition rate (human small cell lung cancer SCLC-21H) [1]: 20%
Inhibition rate (FTO): 100%
Inhibition rate (human bone marrow rhabdomyosarcoma cell RH30) [2]: 51%

COc1cc(-c2cc[nH]n2)cc(OC)c1Nc1ccccc1C(=O)O [Compound 42]
Inhibition rate (human small cell lung cancer SCLC-21H) [1]: 33%
Inhibition rate (FTO): 79%
Inhibition rate (human bone marrow rhabdomyosarcoma cell RH30) [2]: 33%

Cc1noc(C)c1-c1cc(Cl)c(Nc2ccc([N+](=O)[O-])cc2C(=O)O)c(Cl)c1 [Compound 74]
Inhibition rate (human small cell lung cancer SCLC-21H) [1]: 38%
Inhibition rate (FTO): 75%
Inhibition rate (human bone marrow rhabdomyosarcoma cell RH30) [2]: 32%

O=C(O)c1cc(F)ccc1Nc1c(Cl)cc(-c2cncnc2)cc1Cl [Compound 71]
Inhibition rate (FTO): 70%
